Laboratory results reported in patent US20040024048A1, “Medicaments for treating dementia” (priority 2000, published 2004).
Where two headings read alike, the source gives them in different places.

Experiments:
[1] = tested on: patients with clinical manifestations of dementing deficits; test: mini-mental state examination (MMSE) in dementia patients; type: in vivo, human
Description: The mini-mental state examination test was published by Marshall Folstein in 1975 and was originally intended as a test to differentiate cognitive functions (Folstein et al., 1975). Because the test is short, it is now used as screening test in studies for establishing inclusion/exclusion criteria. The test covers orientation, attention, short- and medium-term memory, word-finding, reading, writing, and in addition a command to perform an action must be obeyed. The tasks in the test are designed so that they can normally be solved without difficulty by people without cognitive impairment. The maximum score achievable is 30, and a score of less than 24 indicates a dementing disorder. The following levels are generally differentiated (Zec et al., 1992).
(§1) Patients with clinical manifestations of dementing deficits and suspected brain damage based on Alzheimer's dementia or vascular dementia or a similar suspected diagnosis were treated with medicines to improve the symptomatic cognitive deficits (nootropics). Since all the active ingredients currently available in the dementia sector provide only marginal improvements, it was justified, despite the disappointing first study, to administer α-lipoic acid in high dose to patients on the basis of this basic therapy. The effect of the therapy was assessed using standardized clinical dementia assessment scales which are usual now and which are distinguished by high reliability. This comprises the mini-mental state examination (MMSE) or the Alzheimer's disease assessment scale (ADAS). The advantage of these clinical instruments is that the severity of the dementia can be established reliably, irrespective of the organic cerebral basis, which is usually not unambiguous, of the clinical picture of dementia.

[2] = tested on: patients with clinical manifestations of dementing deficits; test: Alzheimer's disease assessment scale (ADAS / ADAS-Cog) in dementia patients; type: in vivo, human
Description: A further test for establishing the neuropsychological status of a dementia patient is the “Alzheimer's Disease Assessment Scale-Cognitive Subscale (ADAS-Cog)” (Rosen et al., 1984). The Alzheimer Disease Assessment Scale was invented by W. G. Rosen, R. C. Mohs, 1988, Rosen and K. L. Davis, 1984, and the German version was produced by R. Ihl and G. Weyer, Beltz Test 1993. The ADAS was not originally intended to be a diagnostic instrument, but separates dementing people from healthy control subjects of the same age very well. The following criteria can be distinguished in the ADAS: cognitive area, noncogn. area, memory, orientation/praxis, motor function, depression, psychotic symptoms, concentration/cooperation, speech. In the version used here, speech is included in the cognitive area, and thus a max. minus score of 70 is possible. It was possible to show for people with Alzheimer-type dementia that the complete scale increases by 5 to 7 points on average over the course of 12 months, and by 14 points on average over the course of 24 months. The items in the cognitive part are most sensitive in this regard.
as §1

[3] = tested on: aging animals; conditions: cited from earlier work
[4] = tested on: patients with HIV dementia; conditions: cited from earlier work
[5] = tested on: patients with clinical manifestations of dementing deficits; test: Global Deterioration Scale (GDS) in dementia patients; type: in vivo, human; conditions: GDS 4/5 at start
Description: Standardized methods are developed for routine dementia screening, e.g. the mini-mental state examination (MMSE) or the Alzheimer's Disease Assessment Scale (ADAS). Further methods would be: GDS: Global Deterioriation Scale (Reisberg et al., 1982), FAST: Functional Assessment Staging (Reisberg, 1988).

[6] = tested on: patients with sclerotic dementia and involutional depressions; conditions: 25-50 mg, patent calls findings unconfirmed and misleading; cited from earlier work
[7] = tested on: aged rats; conditions: high dose, cited from earlier work
[8] = Patient 2, Alzheimer's dementia, Aricept 5/10 mg/day for 12 months, before lipoic acid
[9] = Patient 3, Alzheimer's dementia, Aricept 5 mg/day 13 months plus 600 mg vitamin E
[10] = Patient 4, Alzheimer's dementia, Aricept 5/10 mg/day 19 months, 300 mg aspirin and 600 mg vitamin E 20 months
[11] = Patient 1, Alzheimer's dementia, 4 weeks additional 600 mg a-lipoic acid on Aricept
[12] = Patient 2, additional 600 mg lipoic acid over 7 months on Aricept, Remotiv, vitamin E
[13] = Patient 3, additional 600 mg lipoic acid on Aricept and vitamin E
[14] = Patient 4, 600 mg lipoic acid for 8 months on Aricept, aspirin, vitamin E
[15] = Patient 6, 600 mg lipoic acid on basic therapy
[16] = Patient 11, dementia plus parkinsonism, 600 mg lipoic acid 4 months on Aricept and Madopar T
[17] = patients with HIV dementia, administration of α-lipoic acid
[18] = Patient 8, 600 mg lipoic acid 4 weeks, Aricept 8 weeks

COc1cc2c(cc1OC)C(=O)C(CC1CCN(Cc3ccccc3)CC1)C2 (centres unmarked) [Aricept, donepezil]
deterioration of cognitive status in the MMSE ([1]; Patient 1, Alzheimer's dementia, Aricept 5/10 mg/day for 4 months, before lipoic acid): 1 point
deterioration in the MMSE score [1, 8]: 7
MMSE score deterioration [1, 9]: 2
decrease in the MMSE score [1, 10]: 5
deterioration in the MMSE score ([1]; Patient 5, Alzheimer's dementia, Aricept 5/10 mg/day 24 months with Accuzide 20, Akatinol, 600 mg vitamin E): 6
deterioration in the MMSE score ([1]; Patient 6, Alzheimer's dementia, Aricept 5/10 mg/day 13 months with aspirin 100, Rökan, 600 mg vitamin E): 5
deterioration in the MMSE score ([1]; Patient 7, Alzheimer's dementia, Aricept 5 mg/day 6 months plus 600 mg vitamin E): 6
MMSE score reached ([1]; Patient 9, Lewy body dementia, Aricept 5 mg 12 months, Madopar T and Madopar Depot, before lipoic acid): 17
ADAS score reached (deterioration) [2, 8]: 53
ADAS score increase [2, 9]: 14
decrease of cognitive ability in the ADAS score [2, 10]: 9

CCN(C)C(=O)Oc1cccc([C@H](C)N(C)C)c1 [Exelon]
MMSE score decrease ([1]; Patient 10, frontal cerebral atrophy, Exelon 6 mg/day for 9 months): 5

O=C(O)CCCCC1CCSS1 (stereo not drawn) [R(+)-α-lipoic acid]
influence on motor functions [3]: beneficial influence

C#CCN(C)[C@H](C)Cc1ccccc1 [deprenyl]
effects on cognitive performance ([4]; demented patients, active control drug in the HIV dementia study): confirmed its known beneficial effects

O=C(O)CCCCC1CCSS1 (stereo not drawn) [α-lipoic acid, 1,2-dithiolane-3-pentanoic acid]
GDS reached (improved) ([5]; Patient 3, additional 600 mg lipoic acid): 4
GDS level reached (improved by one level) ([5]; Patient 5, 600 mg lipoic acid): 4
GDS reached (improved) ([5]; Patient 6, 600 mg lipoic acid): 4
MMSE score improvement [1, 11]: 2
improvement in the MMSE score [1, 12]: 1 point
MMSE score improvement [1, 13]: 1
improvement in the MMSE score [1, 14]: 2
MMSE score improvement ([1]; Patient 5, first 3 months of 600 mg lipoic acid on basic therapy): 1
course of the dementia (MMSE) since lipoic acid [1, 15]: no further deterioration
improvement in the MMSE score ([1]; Patient 7, after two months of 600 mg lipoic acid on Aricept and vitamin E): 1
MMSE score now ([1]; Patient 8, Alzheimer's dementia, 600 mg lipoic acid 4 weeks, Aricept 8 weeks, score 18 at start of lipoic acid): 20
improvement in the MMSE score ([1]; Patient 9, Lewy body dementia, 600 mg lipoic acid on Aricept and Madopar): 3
improvement in the MMSE score ([1]; Patient 10, frontal cerebral atrophy, additional 600 mg lipoic acid on Exelon): 1
MMSE score course [1, 16]: remained at the same level
MMSE score reached ([1]; Patient 12, frontal cerebral atrophy, 600 mg lipoic acid 4 weeks, Aricept 8 weeks, other drugs, from 16): 18
effect on the cognitive function ([4]; patients with HIV dementia, 600 mg α-lipoic acid monotherapy): no effect whatsoever
learning [4, 17]: deterioration in learning
verbal learning ability and memory [4, 17]: declined significantly
ADAS score decrease [2, 11]: 6
ADAS score reached ([2]; Patient 1, Alzheimer's dementia, after 4 weeks additional 600 mg a-lipoic acid on Aricept): 18
improvement in the ADAS score [2, 12]: 11 points
ADAS score recovery [2, 13]: 2
ADAS score went back [2, 14]: 3 points
ADAS score loss [2, 15]: 8
ADAS course ([2]; Patient 7, 600 mg lipoic acid on Aricept and vitamin E): remains constant
ADAS score decline [2, 18]: 3
ADAS score reached [2, 18]: 35 error points
ADAS score course [2, 16]: remained at the same level
ADAS score decrease ([2]; Patient 12, frontal cerebral atrophy, 600 mg lipoic acid 4 weeks, Aricept 8 weeks): 5
ADAS score reached ([2]; Patient 12, frontal cerebral atrophy, 600 mg lipoic acid 4 weeks, Aricept 8 weeks, from 41 points): 36 points
manifestations of dementia [6]: improvement of manifestations of dementia
memory performance ([7]; aged rats): improvement in memory performance
memory performance ([7]; young animals): not in young animals
